Experimental findings from US20240366624A1, “METHODS AND COMPOSITIONS FOR TREATING THROMBOTIC DISEASE” (Washington University, priority 2023, published 2024) are described below.

This test concerns WT (C57BL/6) mice. In words: Ex vivo platelet activation and aggregation after intravenous injection. Format: in vivo, mouse. The protocol:
FIG. 19(A-Q) is an exemplary embodiment of B12-5 having an antithrombotic effect without prolonging tail bleeding times in mice in accordance with the present disclosure. FIG. 19(A-C): Ex vivo effects of B12-5. […] One hour later, blood was drawn, followed by isolating platelets. P-selectin exposure (FIG. 19A) and αIIbβ3 integrin activation (FIG. 19B) were assessed in flow cytometry. FIG. 19C: Platelet aggregation was measured after treatment with 0.025 U/mL thrombin. The data represent the mean±SD (n=4). FIG. 19D: The plasma levels of B12-5 were analyzed by liquid chromatography-tandem mass spectrometry (LC-MS/MS) after intravenous injection of the compound (5 μg/g BW) into WT mice and quantified by comparison with a standard curve of B12-5 (mean±SD, n=3). […] The median integrated fluorescence intensities of anti-CD42c (F platelet) and anti-fibrin (F fibrin) antibodies (n=37-42 arterioles in 6 mice per group). Quantification of the antibody signal at a different time point after laser injury. […] Thirty minutes later, tail bleeding times and Hb contents were measured after amputation of the tail tip. […] Twenty-three hours later, neurological deficits were assessed by the Bederson score and grip test, and infarct volume was measured as described in Methods. […] Twenty-three hours later, the neurological deficit and infarct volume were measured as described above. […]

Consider `O=C(CSc1nc(O)cc(O)n1)N1c2ccccc2Sc2ccccc21` [B12-5], for which the “inhibitory effects ex vivo” value (2 μg/g BW, data not shown) was “did not show inhibitory effects”. Also, the “P-selectin exposure, αIIbβ3 integrin activation, and aggregation ex vivo” value (iv 5 μg/g BW, blood drawn 1 hour later) is on record as “significantly inhibited”.
